Measured values as given in patent US7071168B2, “Anti-cancer compounds and methods related thereto” (The Regents of the University of Colorado, priority 1998, dated 2006).

Legend:
TSU = test: Cytotoxicity in vitro (MTT), prostate cancer cell line TSU; assay type: cell-based, human
Description: (§1) In general, Anti-bradykinin activity was determined by the classical guinea pig ileum assay and on Chinese hamster ovary (CHO) cells expressing cloned human bradykinin B2 receptors. Anti-tumor activity was determined on cultured human cancer cell lines using the standard tetrazolium (MTT) assay.
(§2) Cell growth and survival were measured by a rapid colorimetric assay based on the tetrazolium salt MTT (3-(4,5-dimethylthiazol-2-yl)-2,5-diphenyl tetrazolium bromide) (Mosmann, J Immunol. Methods 65: 55–63, 1983, with minor modifications). Briefly, 1,000 normal lung fibroblasts or normal epithelial BEAS-2B cells, 1,000 or 5,000 viable non-SCLC cells or 10,000 viable SCLC cells were plated in 100 μL of growth medium in 96-well flat-bottomed microtiter plates. Cells were incubated overnight to allow recovery. Compounds to be tested were added to the cells in triplicate in a range of concentrations and the cells were incubated at 37° C., 5% CO2, with 100% humidity. Control cells were treated in the same way without antagonists. […] Plates were incubated for 4 days, allowing sufficient time for cell replication and compound-induced cell death to occur. On day 5, 25 μL of a 2 mg/mL solution of MTT (Sigma) dissolved in RMPI-1640was added to each well. The plate was incubated for 4 h at 37° C. The supernate was removed and the blue formazan complex was dissolved by adding 100 μL of 0.02 N HCl in 75% isopropanol to all wells. Absorbance was immediately determined using a scanning multiwell plate reader. B9870 caused 50% cell death at a concentration of 0.15 μM under these conditions.

PC-3 = test: Cytotoxicity in vitro (MTT), prostate cancer cell line PC-3; assay type: cell-based, human
Description: as §1, §2

SCLC strain SHP-77 [1] = test: Colorimetric tetrazolium (MTT) assay for cell survival, SCLC strain SHP-77; assay type: cell-based, human; conditions: for ED50 for cytotoxic activity, SCLC SHP-77: Table 5, included for comparison
How it was run: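 MTT assay: cells seeded overnight, treated in triplicate across a concentration range for 4 days at 37 °C, 5% CO2. On day 5, MTT was added for 4 h; formazan was dissolved in acidified isopropanol and absorbance read.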

[2] = system: bradykinin response of isolated guinea pig ileum; test: Anti-bradykinin activity on isolated guinea pig ileum; conditions: higher numbers indicate higher potency
How it was run: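 Bradykinin concentration-effect curves were run in the absence and presence of compound. Tissue: 25 mm terminal ileum from male Hartley guinea pigs fasted overnight, held at 1 g tension in O2/CO2-bubbled Krebs' solution after 1 h equilibration.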

LNCa = test: Cytotoxicity in vitro (MTT), prostate cancer cell line LNCa; assay type: cell-based, human
Description: as §1, §2

SCLC strain SHP-77 [3] = test: Inhibition of tumor growth in vivo in nude mice, SCLC strain SHP-77
Description: Representative peptide and non-peptide compounds having high in vitro cytotoxic activity were tested against implanted tumors in vivo. Athymic nude mice were implanted subcutaneously with either single cell suspensions (2 million SCLC cells or 1 million NSCLC cells) or with small fragments (3×3 mm) of tumors minced from previously grown nude mouse heterotransplants. On the seventh day after tumor implantation groups of 5 mice bearing implants were injected intraperitoneally daily with the compounds being tested at 1, 5, or 10 mg/kg/day; control animals were injected with an equal volume of isotonic saline. Tumor size was measured with a caliper three times per week. Tumor volume was calculated by the formula: Volume (cc)=π×(length)×(width)^2/6

DU14 = test: Cytotoxicity in vitro (MTT), prostate cancer cell line DU14; assay type: cell-based, human
Description: as §1, §2

PPC1 = test: Cytotoxicity in vitro (MTT), prostate cancer cell line PPC1; assay type: cell-based, human
Description: as §1, §2

[4] = target: T1, cloned human bradykinin B2 receptors (Homo sapiens, UniProt P30411); test: Anti-bradykinin activity on cloned human B2 receptors (CHO cells, Cytosensor microphysiometer); assay type: cell-based; conditions: Table 1; higher numbers indicate higher potency
T1 sequence (P30411 1-391): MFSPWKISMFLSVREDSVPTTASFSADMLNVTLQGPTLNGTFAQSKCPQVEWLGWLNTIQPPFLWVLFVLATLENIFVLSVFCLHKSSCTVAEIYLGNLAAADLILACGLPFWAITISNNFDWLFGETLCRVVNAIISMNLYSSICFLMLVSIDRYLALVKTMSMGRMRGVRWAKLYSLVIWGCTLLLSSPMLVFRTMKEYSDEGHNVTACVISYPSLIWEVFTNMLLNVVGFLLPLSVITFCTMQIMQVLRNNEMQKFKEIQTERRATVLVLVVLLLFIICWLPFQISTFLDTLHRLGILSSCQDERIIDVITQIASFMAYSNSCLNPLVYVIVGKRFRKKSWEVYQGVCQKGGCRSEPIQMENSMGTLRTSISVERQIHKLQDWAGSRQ
Description: as §1
Chinese hamster ovary cells containing cloned and expressed human bradykinin B2 receptors were grown in cell cups of the Cytosensor microphysiometer in Ham's F-12 medium supplemented with sodium pyruvate and 10% FBS (Gibco 11765-054). For assay the cells were transferred to Ham's F-12 without bicarbonate or serum (Gibco 21700-075) and placed in the Cytosensor. Concentration-response curves were constructed to bradykinin in the presence or absence of new compounds.

Row | Compound | ED50 for cytotoxic activity, TSU (TSU) | ED50 for cytotoxic activity, PC-3 (PC-3) | MTT: ED50 for killing of SCLC strain SHP-77 in vitro (SCLC strain SHP-77 [1]; SCLC strain SHP-77 in vitro) | ED50 for cytotoxic activity, SCLC SHP-77 (SCLC strain SHP-77 [1]) | GPI: pA2 for bradykinin antagonist activity on isolated guinea pig ileum ([2]; isolated guinea pig ileum, pD2 of bradykinin is 7.4) | ED50 for cytotoxic activity, LNCa (LNCa) | inhibition of growth in vivo of SCLC strain SHP-77 (SCLC strain SHP-77 [3]; figure legends, nude mice, i.p. daily) | ED50 for cytotoxic activity, DU14 (DU14) | ED50 for cytotoxic activity, PPC1 (PPC1) | MTT: ED50 for killing of SCLC strain SHP-77 in vitro (SCLC strain SHP-77 [1]; Table 1, SHP-77, MTT, 4 days) | HUMAN: pA2 for bradykinin antagonist potency on cloned human B2 receptors [4] | GPI: pA2 for bradykinin antagonist activity on isolated guinea pig ileum ([2]; Table 1) | EC50 (SCLC strain SHP-77 [1]; MTT assay, text of Example XIX, read-out: concentration causing 50% cell death) | inhibition of growth of the SCLC line SHP-77 (SCLC strain SHP-77 [3]; dose of 5 mg/kg/day)
1 | CC1(C)CC(NC(=O)[C@H](Cc2ccc(OCc3c(Cl)cccc3Cl)cc2)NC(=O)/C=C/c2c(F)c(F)c(F)c(F)c2F)CC(C)(C)N1 [M570, F5c-OC2Y-Atmp] | 2800 nM | 1600 nM | 1800 nM | 1800 nM | 5.6 | 3000 nM | inhibition of growth | 1200 nM | 3000 nM |  |  |  |  | 
2 | Atmp-Igl-Pac-α-Sbl-Lys-B9430 [M590] | 7000 nM | 6300 nM |  | 4500 nM |  | 7000 nM |  | 10 nM | 12000 nM | 4500 nM | Inact | 7.5 |  | 
3 | SUIM-(DArg-Arg-Pro-Hyp-Gly-Igl-Ser-DIgl-Oic-Arg) [B9870-2, reference compound] | 6500 nM | 3200 nM |  | 150 nM |  | 3700 nM |  | 80 nM | 4300 nM | 150 nM |  | 8.4 | 150 nM | marked inhibition of growth
